Experimental findings from a melting point compilation (Tetko et al.; mined from patent text by program, amines drawn as free bases though some values may be those of a salt) are described below.

The structures appear in SMILES notation.

`CS(=O)(=O)c1ccc(C(Cc2ccc(F)cc2)C(=O)Nc2cncc(Cl)n2)cc1` (stereo unspecified) showed a melting point of 192 to 193 °C. Regarding `C=C1CCN(c2ccc(Cl)cc2)C1=O`, the melting point was in the range of 119 to 120 °C.

Turning to `Cc1ncsc1C(C)(O)c1ccsc1` (stereo unspecified), the melting point lay in the range of 149 to 151 °C. The figure for `COc1ccc(-c2ncc(NC(=O)OCc3ccccc3)c(=O)n2CC(=O)NC(Cc2ccccc2)C(=O)C(F)(F)F)cc1` (stereo unspecified) is 172 to 174 °C; for `Cc1sc(C)c(Cc2nc3c(F)c(F)cc(F)c3s2)c1CC(=O)O` it is 170 to 171 °C; for `Cc1ccccc1NC(=O)N[C@H]1C[C@@](N)(C(=O)O)[C@@H]2[C@@H](C(=O)O)[C@@H]21` (relative stereo) it is greater than 250 °C. As for `Cc1ccc(CCOc2ccnc3c(OCCc4ccc(C)cc4)cccc23)cc1`, the figure is 142 to 143 °C; as for `CCCCN1C(=O)C2C(=O)N(Cc3cc(C)ccc3C)C(=O)C(C1=O)C2(C)C`, 159 to 161 °C. The figure for `O=c1cc2c(nn1-c1ccc(Cl)cc1F)CCCC2` is 104 to 108 °C; for `COCCn1cc(C(=O)O)c2c(Cl)cccc21` it is 142 to 145 °C; for `Nc1ccc(Cl)c(C(=O)NCCC23CC4CC(CC(C4)C2)C3)c1` it is 147 to 149 °C. The molecule `CS(=O)(=O)Nc1ccc(C=CC(=O)O)cc1` showed a melting point of 218 °C. For `CCn1nc(OCC(=O)C(C)(C)C)c(-c2ccc(S(C)(=O)=O)cc2)c1-c1ccc(F)cc1`, the melting point is 63 to 66 °C. The figure for `COC(=O)CCc1cc2cc(Cl)ccc2n1S(=O)(=O)c1ccc(Cl)cc1` is 89 to 92 °C. As for `O=C(Nc1ccc(F)cc1F)c1cccc(Oc2cccc(Cl)c2)n1`, the figure is 116 to 117 °C; as for `CCc1ccnc2cc(OC)c(O)cc12`, 200 to 202 °C. In turn, `OC1(c2ccc(F)cc2)CCN(Cc2ccnc(-c3ccccc3)c2)CC1` yielded a melting point of 149 to 151 °C. `CC(=O)Oc1ccc2nc(C(N)=O)nc(O)c2c1`: the melting point was found to be 250 °C. In turn, `Cn1ccnc1S(=O)(=O)C(C)(Cc1ccc(-c2ccccc2)cc1)C(=O)NO` (stereo unspecified) yielded a melting point of 112 °C.

For `COc1ccc2oc(C(=O)OCC(C)(C)C(O)C(C)(C)C)cc2c1` (stereo unspecified), the melting point came out at 114 °C. The figure for `O=C(CC(NC(=O)COCc1ccccc1)c1ccccc1)Nc1n[nH]c(=S)s1` (stereo unspecified) is 190 to 191 °C; for `COc1ccc(C(=N)N(N)c2c(Cl)cncc2Cl)cc1OC1CCCC1` it is 130 to 131 °C. As for `CS(=O)(=O)c1ccc(-c2c(-c3ccc(F)cc3)c(OCc3ccccc3)nn2Cc2ccccc2)cc1`, the figure is 174 to 175 °C; as for `CC(C)C(=O)c1cccc(S(N)(=O)=O)c1`, 170 to 171 °C; as for `CCCC1(C)CC(=O)c2ccc(OCc3ccccc3)c(C)c2O1` (stereo unspecified), 45 °C. As for `CCOC(=O)CN1CSCCC(N2C(=O)c3ccccc3C2=O)C1=O` (stereo unspecified), the figure is 192 to 194 °C; as for `COC(=O)CCn1c(=O)n(CCN2CCN(c3cccc(C(F)(F)F)c3)CC2)c(=O)c2cscc21`, 87 to 88 °C.

In turn, `CCC1=C(c2cccc(C(F)(F)F)c2)n2ncc(C#N)c2N(C(=O)CN2CCN(Cc3ccccc3)CC2)C1` came in with a melting point of 97 to 99 °C. As for `COc1cc2ncnc(N3CCN(C(=S)NCc4ccc(C(C)(C)C)cc4)CC3)c2cc1OC`, the figure is 104 to 105 °C; as for `Nc1ccc(NC(=O)N2CCc3cc(S(=O)(=O)N4CC(c5ccccc5)NC4=O)ccc32)cc1` (stereo unspecified), 158 to 160 °C; as for `O=c1c(=NNc2ccccc2)c(=O)n(-c2ccccc2)c2ccccc2n1CCC1C2CC3CC(C2)CC1C3` (stereo unspecified), 130 to 131 °C. Regarding `CC1CCN(c2c(-c3c(F)cc(F)cc3F)c(Cl)nc3nc(SCc4ccccc4)nn23)CC1`, the melting point came out at 147 °C. The figure for `C=CCN(CC=C)Cc1noc(-c2ncn3c2[C@@H]2CCCN2C(=O)c2c(Cl)cccc2-3)n1` is 175 to 177 °C. As for `CCC1(CCCCN2CCN(c3ccc(Cl)cc3)CC2)C(=O)Nc2ccc(F)cc21` (stereo unspecified), the melting point was in the range of 148 to 150 °C. The figure for `c1ccc(-c2ccc(N(c3ccccc3)c3ccccc3)cc2)cc1` is 117 to 118 °C; for `COc1cccc2c(Nc3ccccc3C)nc(N3CCCC3)nc12` it is 181 to 183 °C.

`CC1(C)CC(=O)c2c(SC(C)(C)C)sc(-c3cc[nH]n3)c2C1` yielded a melting point of 220 to 222 °C. The figure for `O=C(O)c1csc(Cn2cc(C3c4ccc(Br)cc4C=Cc4cc(Br)ccc43)c(=S)[nH]c2=O)n1` is 215 to 217 °C; for `C=CCOC(=O)c1cccc(C2=Nc3cc(C)c(-c4cccc(CF)c4)cc3NC(=O)C2)c1` it is 226 to 228 °C; for `CCCCC(CC)C(=O)Nc1ccc(-n2nc3ccc(C(F)(F)F)cc3n2)c(O)c1` (stereo unspecified) it is 179 to 181 °C.

For `ON=C(c1ccncc1)c1ccc(F)cc1F`, the melting point is 155 to 200 °C. The figure for `C=CCc1c(O)ccc2c1CCCC2=O` is 145 to 148 °C; for `CCCCOc1ccccc1C(=O)C=Cc1cc(OC)cc(OC)c1` it is 69.5 to 70.1 °C. The figure for `COC(=O)[C@H](CCC(=O)O)N1C(=O)c2ccccc2C1=O` is 137 to 138 °C; for `O=C(O)CCCCNc1ccccc1-c1ccccc1` it is 73 to 75 °C; for `COc1ccc(OCCC2CCN(c3cc(Cl)nnc3Cl)CC2)cc1` it is 119 to 120 °C. As for `O=C(Cc1cccc2ccccc12)Nc1cc([C@H]2C[C@@H](NC(=O)c3cccc([N+](=O)[O-])c3)C2)[nH]n1`, the figure is 124 °C; as for `Cc1nc(N2C[C@@H](C)N(Cc3ccc(F)cc3)C2=O)sc1C(=O)NCc1cc(F)cc(F)c1`, 159 to 160 °C; as for `O=C(O)c1cccc2c(=O)c3cc([N+](=O)[O-])ccc3[nH]c12`, 375 °C. `CC(C)(C)OC(=O)N1CCN(c2ccc(-c3ccnc(Cl)n3)cn2)CC1` came in with a melting point of 182 to 183 °C.

In turn, `COc1ccc(CCNC(=O)C2=C(C(=O)Nc3cc(OC4CCCC4)c(Cl)cc3F)CCCC2)cc1OC` had a melting point of 159 to 161 °C. As for `CN(C)c1cccc2c(S(=O)(=O)Nc3ccc4nonc4c3)cccc12`, the figure is 106 °C; as for `NC(=CC(=O)C1CC1)c1ccncc1`, 159 to 166 °C. As for `CCOC(=O)c1ccc2c(cnn2CCC#N)c1`, the figure is 106 to 109 °C. As for `COC=C(C(=O)OC)c1ccccc1CCc1ccccc1`, the figure is 52 to 54 °C; as for `CCOC(=O)c1sc(OCC)nc1-c1ccccc1`, 32 to 34 °C.

Take `CC(C)(C)C(=O)N1CC=C(C#Cc2ccc3c(c2)NC(=O)CC(c2cccc(C#N)c2)=N3)CC1`: the melting point came to 219 °C. The figure for `Clc1cc2nc3c4ccccc4c4ccccc4c3nc2cc1Cl` is 263 to 264 °C; for `O=C(O)CSC(CCCc1ccccc1)c1ccc(OCc2ccc3ccccc3n2)cc1` (stereo unspecified) it is 118 to 119 °C.

`CNc1c(F)cc2c(=O)c(C(=O)O)cn(-c3cc(N)c(F)cc3F)c2c1OC` returned a melting point of 225 to 227 °C.

`COc1ccc(CN2C(=O)C(NC(=O)OCc3ccccc3)C2C2COC(=O)O2)cc1OC` (stereo unspecified) came in with a melting point of 135 to 136 °C. The figure for `CC(C)(C)OC(=O)C(ON1C(=O)c2ccccc2C1=O)c1ccccc1` (stereo unspecified) is 121 to 122 °C.

`CCn1c2ccccc2c2cc(N(c3ccccc3)c3ccccc3)ccc21` returned a melting point of 152 to 154 °C. Regarding `COc1cc(N2CCC(N3CCN(C)CC3)CC2)ccc1Nc1ncc2ccc(-c3ccc(Cl)nc3)n2n1`, the melting point lay within 186 to 188 °C. The figure for `COc1cc(CC(C#N)=CNc2ccccc2)cc(OC)c1NC(C)=O` is 165 to 167 °C; for `CC(C)(C)OC(=O)Nc1ccc(C(=O)O)cc1C(F)(F)F` it is 197 to 198 °C; for `Cc1oc(-c2ccccc2)nc1CCOc1ccc(CO)cc1` it is 110 to 113 °C.

Turning to `CCOC(=O)c1nsc(-c2ccccc2)n1`, the melting point was 32 to 35 °C. As to `O[C@H]1c2cc(OC(c3ccccc3)c3ccccc3)ccc2OC[C@H]1Oc1cccnc1` (relative stereo), the melting point lay in the range of 169 to 170 °C.

The molecule `COc1ccc(Nc2nc(O)c3sccc3n2)c(C)c1` gave a melting point of 246 to 248 °C. The figure for `CNc1cncc(C(F)(F)F)c1` is 69 to 70 °C; for `CCN1CCC2(c3cccc(O)c3)Cc3[nH]c(C(=O)Nc4ccccc4)c(C)c3CC2C1` (stereo unspecified) it is 271 to 272 °C. As for `O=C(F)OC12CC3CC(CC(C3)C1)C2`, the figure is 32 to 33 °C; as for `O=C1C2=C(CCCC2)C(=O)N1CCCCCCN1C(=O)C2=C(CCCC2)C1=O`, 123 to 124 °C; as for `Cc1cc(-c2ccc(Cl)cc2)nc(-n2cnc(-c3cccc(S(N)(=O)=O)c3)c2)n1`, 275 °C. The figure for `CCCCn1c(C(=O)c2cc(C)cc(C=CC#N)c2)c(C(C)C)c(=O)[nH]c1=O` is 164 to 165 °C. On to `CC(OP(=O)(c1ccccc1)c1ccccc1)c1ccccc1C(C)OP(=O)(c1ccccc1)c1ccccc1` (stereo unspecified), for which the melting point lay within 147 to 148 °C.

Take `Cn1cc(C2=C(c3ccncc3)C(=O)NC2=O)c2ccccc21`: the melting point was in the range of 332 to 334 °C. On to `CC(N)c1cc(NC(=O)OC(C)(C)C)ccc1NC(=O)OC(C)(C)C` (stereo unspecified), for which the melting point was found to be 170 °C. `CCCCCCCCCCCCCCCC(=O)Nc1c(C)cccc1C(=O)O` registered a melting point of 106 to 113 °C. The figure for `Clc1ccc2c(c1)N(C1CN3CCC1CC3)c1ccccc1S2` (stereo unspecified) is 165 °C; for `CCOC(=O)Cc1ccnc(C(SC)=C(C#N)C#N)c1` it is 148 to 152 °C. The figure for `CN1CCN(C2CC3C4CCC5CC(O)C(N6CCC(O)CC6)CC5(C)C4CCC3(C)C2O)CC1` (stereo unspecified) is 248 to 250 °C; for `O=C(CO)c1ccc(Oc2ccccc2)cc1` it is 67 to 69 °C; for `CS(=O)(=O)c1cc2[nH]c(=O)c(=O)n(C3CCCCC3)c2cc1[N+](=O)[O-]` it is greater than 280 °C. The figure for `Nc1nc(Cl)cc(NCC2(CO)CC(=O)C2)n1` is 171 to 173 °C.
